Source: patent US11629175B2, “Method for preparing PHFS-like Tau aggregates” (ECOLE POLYTECHNIQUE FEDERALE DE LAUSANNE (EPFL), priority 2018, dated 2023)

What was measured:
[1] = tested on: tau biosensor cells; assay: Tau biosensor cell assay (FRET flow cytometry, confocal microscopy), seeding capacity; format: cell-based; conditions: for Integrated FRET Density (IFD): FRET flow cytometry, 2 experimental repeats, 3 technical replicates
From the text: Based on Furman and Diamond, 2017. FRET and Flow Cytometry Assays to Measure Proteopathic Seeding Activity in Biological Samples. Caroline Smet-Nocca (ed.), Tau Protein: Methods and Protocols, Methods in Molecular Biology, vol. 1523, DOI 10.1007/978-1-4939-6598-4_23, © Springer Science+Business Media New York 2017).
Methods: FRET flow cytometry Biosensor cell assay (Furman and Diamond, 2017) was used to assess the seeding capacity of fibrillar R2 compared to R2 monomer, and fibrillar rPHF compared to 4R2N monomer
Methods: cells were transduced with transduction buffer, R2 monomer, rPHFs or R2 fibrils following protocol by Furman and Diamond (2017).

[2] = molecular target: T1, monomeric Tau 4R2N (Homo sapiens, UniProt P10636); assay: R2-seeded Tau aggregation with commercially available inhibitors, ThS fluorescence and EM; format: biochemical; conditions: Tau 4R2N 5 μM + R2 seeds 5 μM; inhibitor 1, 10, 100 μM; end timepoint ThS
T1 construct: made in house; host or cells: E. coli (pET-28a(+))
Procedure: The aggregation kinetic is followed using ThS fluorescence. a. The list and structure of the 5 inhibitors used in this proof of concept assay. b. As an example, the full kinetic of Tau incubated in presence of R2 seed with LMTX at 1 μM (orange), 10 μM (grey) or 100 μM (yellow) or in absence of inhibitor (blue). c. End timepoint ThS value of Tau incubated in presence of R2 with the five selected inhibitors at 1 μM (orange), 10 μM (grey) or 100 μM (yellow) or in absence of inhibitor (blue). The inhibition is dose-dependent, the inhibitors show various inhibition potencies (e.g. low for BSc3094, high for LMTX). […] Corresponding EM micrographs confirm the absence of significant fibrilization in the presence of most inhibitors. The presence of oligomeric species corroborate the hypothesis that Tau is locked in OFF-pathway conformations. The scale bars are 500 [nm].
To do so, R2 seeds were incubated with monomeric Tau protein in presence or absence of a set commercially available know Tau aggregation inhibitors (ATPZ, LMTX, Pyrochatecol violet, BSc3094 and myricetin, FIG. 18 a) at three different conventions (1 μM, 10 μM and 100 μM). The aggregation kinetic was followed using ThS fluorescence. As an example, the full kinetic of Tau incubated in presence of R2 seed, with LMTX at the three different concentration is presented in FIG. 18 b. […]

[3] = molecular target: T1, monomeric Tau 4R2N; assay: Seeding of monomeric Tau with R2 or R2-derived peptide seeds, EM; format: biochemical; conditions: 37° C.; for seeding of monomeric Tau / formation of rPHFs (EM): 10 μM sonicated peptide fibrils + 10 μM monomeric Tau
Procedure: The seeding of Tau 4R2N (SEQ ID No: 5) by R2 was performed in presence of 10 μM of sonicated peptide fibrils, added to 10 μM of the monomeric soluble Tau, at 37° C. under stagnant conditions. It was observed that R2 is capable of seeding the aggregation of full length Tau (FIG. 3).
Having determined which of the R2-derived peptides are capable of aggregation and characterized their aggregation kinetics and fibril morphology, it was next investigated whether some of the R2-derived peptides could induce the seeding of Tau and K18, and whether it would lead to the formation of rPHFs fibrils. In order to reach this goal, fibrils of the peptides that were able to aggregate (R2 dC5, dC9, dC10, dC15 K6N and dPHF6*) were sonicated and added to monomeric Tau or K18 at molar ratios of 10 μM: 10 μM (i.e. under the same experimental conditions as those leading to R2-seeding of Tau and K18).
Unless stated otherwise, 100 μM R2 or R2-derived peptide were dissolved in 10 mM phosphate, 50 mM NaF, 0.5 mM DTT and pH-adjusted to 7.4. The solution was then vortexed and the supernatant was incubated in presence of heparin sodium salt at molar ratio 1:4 (heparin:peptide) (Applichem GmbH) at 37° C., either with or without constant orbital agitation (1000 rpm, Peqlab, Thriller).
The obtained seeds were added at a final concentration of 10 μM to 10 μM of monomeric Tau or K18 in 10 mM phosphate, 50 mM NaF, 0.5 mM DTT and incubated 37° C.

[4] = tested on: hippocampal rat primary neurons; assay: Immunocytochemistry (ThS) in transfected rat primary hippocampal neurons; format: cell-based; conditions: 1 μM, 3 days
Procedure: Next, the findings of the present invention were validated using a cellular model, the hippocampal rat primary neurons. Primary neurons were transfected with full length Tau and K18 ΔK280, and cells were treated with R2, R2-seeded Tau or R2-seeded K18 at a concentration of 1 μM, […]. After 3 days, the coverslips were processed for ICC. […] Although the intracellular ThS signal is relatively high, it is difficult to distinguish between uptake of exogenous material and seeding of endogenous and/or overexpressed Tau/K18 ΔK280, especially since the concentration used here is relatively high (1 μM).
Hippocampi from PO WT rat (OFA SD, Charles River) were dissociated and triturated in papain-containing medium. After centrifugation at 400 g for 2 min, neurons were plated in MEM supplemented with 10% fetal calf serum (FCS) on Cultrex™ poly-L-lysine (Trevigen)-coated coverslips at 1.5×10^5 cells/ml (6 well-plates, 3 ml per well). After 4 h, medium was replaced with Neurobasal/B27 medium. Viral infections were performed two weeks, and transfection one week after plating.
One week old hippocampal rat primary neurons seeded on coverslips coated with Cultrex poly-L-lysine were transfected with Tau or K18 ΔK280 ([…]) using lipofectamine 2000 reagent (Invitrogen). 24 h after transfection, cells were treated with 1 μM monomeric R2, R2 seeds, R2-seeded Tau, R2-seeded K18 and further incubated for 1 or 3 days. Cells were then fixed in 100% methanol at −20° C. for 10 min and rinsed three times in PBS. After blocking with 3% BSA in PBST for 30 min at RT, cells were incubated with ThS (Sigma) at 0.1 mg/ml in PBS for 10 min and rinsed 5 times with 80% Ethanol and once with PBS. Coverslips were then incubated with primary antibodies for 2 h at RT (see Table M.1). The cells were rinsed five times with PBST and subsequently incubated with the secondary antibodies at a dilution of 1/800 in PBST and DAPI at 2 μg/ml (Life technologies). The cells were washed five times in PBST, once in PBS and rinsed in MilliQ water before mounting in PVA medium with DABCO (Sigma). The cells were then examined with confocal laser-scanning microscope (LSM 700, Zeiss) and analyzed using Zen software.

[5] = neurons transfected with K18 ΔK280
[6] = neurons transfected with WT Tau 4R2N

T1 sequence (P10636 1-441 isoform P10636-8): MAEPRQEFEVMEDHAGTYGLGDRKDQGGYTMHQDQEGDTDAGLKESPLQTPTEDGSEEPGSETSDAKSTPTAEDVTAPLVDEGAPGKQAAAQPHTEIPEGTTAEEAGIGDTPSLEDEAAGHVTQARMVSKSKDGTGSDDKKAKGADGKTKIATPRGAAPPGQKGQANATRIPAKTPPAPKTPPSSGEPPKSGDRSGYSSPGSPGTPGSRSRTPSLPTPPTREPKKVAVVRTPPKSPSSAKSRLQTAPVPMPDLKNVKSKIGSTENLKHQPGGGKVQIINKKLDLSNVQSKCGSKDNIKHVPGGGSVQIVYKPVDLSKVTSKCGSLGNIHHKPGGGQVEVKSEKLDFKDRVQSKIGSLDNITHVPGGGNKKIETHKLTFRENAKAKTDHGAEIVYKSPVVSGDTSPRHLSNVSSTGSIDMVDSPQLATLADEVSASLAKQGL

Compound: 4R2N monomer: longest adult human Tau isoform, 441 amino acid, SEQ ID No 5, monomeric
- Integrated FRET Density (IFD) [1]: 0

Compound: O=C(NNc1nc(-c2ccc([N+](=O)[O-])cc2)cs1)c1ccc2nc[nH]c2c1 [BSc3094]
- inhibition potency [2]: low

Compound: CN(C)c1ccc2c(c1)Sc1cc(N(C)C)ccc1N2.CS(=O)(=O)O.CS(=O)(=O)O [LMTX]
- inhibition potency [2]: high

Compound: R2 extended and mutated to the SGGG motif: R2 PGGG-extended with P301S mutation (SGGG), SEQ ID No 4 (VQIINKKLDLSNVQSKCGSKDNIKHVSGGG; listed as Homo sapiens)
- seeding of monomeric Tau / formation of rPHFs (EM) [3]: allowed the formation of rPHFs

Compound: R2-seeded K18: K18 (SEQ ID No 6) fibrils formed by seeding with R2 seeds
- ThS signal in transfected neurons [4, 5]: strong ThS signal
- localisation of ThS signal [4, 5]: intracellular
- ThS signal in transfected neurons [4, 6]: strong ThS signal
- localisation of ThS signal [4, 6]: intracellular

Compound: R2: Tau repeat peptide R2, SEQ ID No 1
- incubation time until PHFs-like fibrils observed by EM ([3]; 10 μM R2 seeds + 10 μM Tau 4R2N, stagnant): less than 4 h
- seeding of monomeric Tau / formation of rPHFs (EM) [3]: allowed the formation of rPHFs

Compound: rPHF fibrils: recombinant PHFs: Tau fibrils formed by seeding monomeric Tau with R2 seeds
- Integrated FRET Density (IFD) [1]: increase in the IFD
- aggregates in transduced biosensor cells (confocal microscopy) ([1]; transduction per Furman and Diamond): bright aggregated puncta
- ThS signal in transfected neurons [4, 5]: strong ThS signal
- localisation of ThS signal [4, 5]: intracellular
- ThS signal in transfected neurons [4, 6]: strong ThS signal
- localisation of ThS signal [4, 6]: intracellular
